According to patent publication US9084778B2, “Topical compositions containing a retinoid of the oil-in-water emulsion type” (GALDERMA RESEARCH & DEVELOPMENT, priority 2012, dated 2015):

Legend:
[1] = Maximum solubility in fat phase excipients determined by HPLC; type: physicochemical
Text: In order to obtain an oil in water emulsion containing a compound with the general formula (I) in the fat phase, pre-formulation studies have been conducted to provide evidence of the excipients allowing good solubilisation as well as good stability of the active ingredient.
(1) List of fat phase excipients in which the maximum solubility has been determined by HPLC:
The limit, below which the compounds of general formula (1) are considered non-solubilized, is 0.1% by weight.

[2] = Stability of compound A in its principal solvents; type: physicochemical
Text: (2) Stability of compound A in its principal solvents:
(§1) The limits fixed for high stability are 95%-105% as a percentage relative to TO.

[3] = Stability of compound A in mixtures of excipients (solvent/surfactants) determined by HPLC; type: physicochemical
Text: (3) Stability of compound A in mixtures of excipients (solvent/surfactants) determined by HPLC:
Studies of stability of compound A solubilised in oils (in which it is stable) in the presence of surfactants have been conducted:
as §1

[4] = "Single time" cutaneous penetration study ex vivo (Franz cells, 16 h); type: in vitro ADME; details: ex vivo human skin, the 2 formulae evaluated
Method: Two types of cutaneous penetration studies were carried out ex vivo on human skin. In these studies compound A corresponds to 3″-tert-butyl-4′-(2-hydroxy-ethoxy)-4″-pyrrolidin-1-yl-[1,1′;3′,1″]-terphenyl-4-carboxylic acid.
“Single Time” Cutaneous Penetration Study:
In this study the Formula is applied for 16 hours to the surface of the skin. After the application COMPOUND A is quantified in the different compartments of the skin: stratum corneum, epidermis, dermis and receiving liquid according to the validated bioanalysis method.
The bioanalysis was conducted by mass spectrometry in tandem by positive electrospray ionisation using a Xevo device (Waters). The limit of quantification for compound A is 1 ng/mL.
The conditions of LC/MS/MS developed enabled up to 0.1% of the doe applied in each of the compartments to be detected (unabsorbed dose, stratum, epidermis, dermis and receiving liquid).
In this type of “single point” study the parameters considered are: • a. The distribution profile in the different compartments (qualitative data) • b. The penetration in the epidermis+dermis compartment (numerical data) FIG. 1

## CC(C)(C)c1cc(-c2cc(-c3ccc(C(=O)O)cc3)ccc2OCCO)ccc1N1CCCC1 [Compound A, 3″-tert-butyl-4′-(2-hydroxy-ethoxy)-4″-pyrrolidin-1-yl-[1,1′;3′,1″]-terphenyl-4-carboxylic acid]
[1]; in Arlasolve DMI (Dimethyl Isosorbide)
  Maximum solubility: 0.400%
[1]; in Benzyl alcohol (Benzyl Alcohol)
  Maximum solubility: 2.388%
[1]; in Brij 30 (Laureth-4)
  Maximum solubility: 2.03%
[1]; in Capryol 90 (Propylene glycol monocaprylate)
  Maximum solubility: 0.802%
[1]; in Crodamol IPM (Isopropyl myristate)
  Maximum solubility: <0.1%
[1]; in Hydrolite 5P (Pentylene glycol)
  Maximum solubility: 0.482%
[1]; in Phenoxetol (Phenoxyethanol)
  Maximum solubility: 1.957%
[2]; COMPOUND A 0.005% in Miglyol 812N (Caprylic/capric triglycerides), 40° C.
  Stability results: Stable/Ok 6 Months
[2]; COMPOUND A 0.005% in Sweet almond oil, 40° C.
  Stability results: Stable/Ok 6 Months
[2]; COMPOUND A 0.05% in Arlacel 83V Pharma (Sorbitan Sesquioleate), 40° C.
  Stability results: Stable/Ok 6 Months
[2]; COMPOUND A 0.05% in Arlamol E (PPG-15 stearyl ether), 40° C.
  Stability results: Stable/Ok 6 Months
[2]; COMPOUND A 0.05% in Arlasolve DMI (Dimethyl Isosorbide)
  Stability results: Unstable
[2]; COMPOUND A 0.05% in Benzyl Alcohol
  Stability results: Unstable
[2]; COMPOUND A 0.05% in Brij 30 (Laureth-4)
  Stability results: Unstable
[2]; COMPOUND A 0.05% in Capryol 90 (Propylene glycol monocaprylate), 40° C.
  Stability results: Stable/Ok 6 Months
[2]; COMPOUND A 0.05% in Crodamol DA (Diisopropyl Adipate), 40° C.
  Stability results: Stable/Ok 6 Months
[2]; COMPOUND A 0.05% in Dipropylene Glycol Care (Dipropylene glycol)
  Stability results: Unstable
[2]; COMPOUND A 0.05% in Eutanol G (Octyldodecanol)
  Stability results: Unstable
[2]; COMPOUND A 0.05% in Labrafil M1944CS (Apricot Kernel Oil PEG-6 Ester), 40° C.
  Stability results: Stable/Ok 6 Months
[2]; COMPOUND A 0.05% in Lauroglycol FCC (Propylene glycol laurate), 40° C.
  Stability results: Stable/Ok 6 Months
[2]; COMPOUND A 0.05% in Marcol 152 (Parrafinum liquidum)
  Stability results: Unstable
[2]; COMPOUND A 0.05% in Myritol PC (Propylene glycol dicaprylate/dicaprate)
  Stability results: Unstable
[2]; COMPOUND A 0.05% in Phenoxetol (Phenoxyethanol), 40° C.
  Stability results: Stable/Ok 6 Months
[3]; COMPOUND A 0.05% in Arlacel 165/Arlamol E, 40° C.
  Stability results: Stable/Ok 3 Months
[3]; COMPOUND A 0.05% in Arlacel 165/Lauroglycol FCC
  Stability results: Unstable
[3]; COMPOUND A 0.05% in Brij 721/Arlamol E, 40° C.
  Stability results: Stable/Ok 3 Months
[3]; COMPOUND A 0.05% in Brij 721/Lauroglycol FCC, 40° C.
  Stability results: Stable/Ok 3 Months
[3]; COMPOUND A 0.05% in Cremophor EL/Labrafil M1944CS
  Stability results: Unstable
[3]; COMPOUND A 0.05% in Cremophor EL/Lauroglycol FCC
  Stability results: Unstable
[3]; COMPOUND A 0.05% in Eumulgin B2/Arlamol E, 40° C.
  Stability results: Stable/Ok 3 Months
[3]; COMPOUND A 0.05% in GlucateSS-Glucamate SSE-20/Arlamol E
  Stability results: Unstable
[3]; COMPOUND A 0.05% in GlucateSS-Glucamate SSE-20/Lauroglycol FCC, 40° C.
  Stability results: Stable/Ok 3 Months
[3]; COMPOUND A 0.05% in Simulsol M45/Crodamol DA
  Stability results: Unstable
[3]; COMPOUND A 0.05% in Tween 80/Arlamol E
  Stability results: Unstable
[3]; COMPOUND A 0.2% in Cremophor EL/Labrafil M1944CS
  Stability results: Unstable
[3]; COMPOUND A 0.2% in Cremophor RH40/Crodamol DA
  Stability results: Unstable
[3]; COMPOUND A 0.2% in Simulsol M45/Crodamol DA
  Stability results: Unstable
[3]; COMPOUND A 0.2% in Tween 80/Hexylene glycol
  Stability results: Unstable
[3]; COMPOUND A 0.2% in Tween 80/Lauroglycol FCC
  Stability results: Unstable
[4]
  Compound A in the receiving liquid: not detected
